Results as given in ChEMBL document CHEMBL6096706, “Discovery of WDR5-MLL1 and HDAC Dual-Target Inhibitors for the Treatment of Acute Myeloid Leukemia” (J Med Chem, 2025).

Columns and labels:
[1] = target: T1, Protein deacetylase HDAC6 (Homo sapiens, UniProt Q9UBN7); assay: Inhibition of HDAC6 (unknown origin) by fluorescence based assay
T1 sequence (Q9UBN7 whole entry): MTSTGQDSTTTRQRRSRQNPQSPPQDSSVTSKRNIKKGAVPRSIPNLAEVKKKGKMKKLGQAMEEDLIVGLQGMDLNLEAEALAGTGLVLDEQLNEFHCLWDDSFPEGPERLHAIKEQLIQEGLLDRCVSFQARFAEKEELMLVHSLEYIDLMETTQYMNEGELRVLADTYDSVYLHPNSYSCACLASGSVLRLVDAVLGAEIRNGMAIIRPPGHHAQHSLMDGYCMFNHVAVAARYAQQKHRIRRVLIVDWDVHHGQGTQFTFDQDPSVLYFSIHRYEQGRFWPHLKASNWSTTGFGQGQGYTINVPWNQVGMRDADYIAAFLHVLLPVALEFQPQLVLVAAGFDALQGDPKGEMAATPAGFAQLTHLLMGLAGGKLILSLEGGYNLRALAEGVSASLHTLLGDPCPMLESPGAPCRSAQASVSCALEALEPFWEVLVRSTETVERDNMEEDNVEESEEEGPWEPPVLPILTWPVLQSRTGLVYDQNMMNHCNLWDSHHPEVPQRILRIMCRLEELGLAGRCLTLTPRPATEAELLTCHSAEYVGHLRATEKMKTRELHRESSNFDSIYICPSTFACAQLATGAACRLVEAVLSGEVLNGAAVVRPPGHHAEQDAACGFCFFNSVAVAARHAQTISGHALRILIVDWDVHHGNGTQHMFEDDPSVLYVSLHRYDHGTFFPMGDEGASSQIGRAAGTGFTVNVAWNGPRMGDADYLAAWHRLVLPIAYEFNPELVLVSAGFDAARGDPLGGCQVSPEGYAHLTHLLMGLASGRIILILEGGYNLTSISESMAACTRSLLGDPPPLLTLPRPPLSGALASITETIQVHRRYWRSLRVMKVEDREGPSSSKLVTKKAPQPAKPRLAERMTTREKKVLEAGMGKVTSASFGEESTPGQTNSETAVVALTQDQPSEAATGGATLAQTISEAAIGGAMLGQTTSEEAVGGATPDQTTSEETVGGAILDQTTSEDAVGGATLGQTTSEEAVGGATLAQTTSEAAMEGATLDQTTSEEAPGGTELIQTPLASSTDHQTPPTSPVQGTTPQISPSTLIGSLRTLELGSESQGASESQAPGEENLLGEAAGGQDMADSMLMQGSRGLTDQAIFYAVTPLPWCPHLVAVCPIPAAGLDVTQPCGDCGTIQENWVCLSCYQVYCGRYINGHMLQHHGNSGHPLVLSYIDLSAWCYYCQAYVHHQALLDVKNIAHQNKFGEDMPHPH

Histone deacetylase 11 = target: T2, Histone deacetylase 11 (Homo sapiens, UniProt Q96DB2); assay: Inhibition of HDAC11 (unknown origin) by fluorescence based assay
T2 sequence (Q96DB2 whole entry): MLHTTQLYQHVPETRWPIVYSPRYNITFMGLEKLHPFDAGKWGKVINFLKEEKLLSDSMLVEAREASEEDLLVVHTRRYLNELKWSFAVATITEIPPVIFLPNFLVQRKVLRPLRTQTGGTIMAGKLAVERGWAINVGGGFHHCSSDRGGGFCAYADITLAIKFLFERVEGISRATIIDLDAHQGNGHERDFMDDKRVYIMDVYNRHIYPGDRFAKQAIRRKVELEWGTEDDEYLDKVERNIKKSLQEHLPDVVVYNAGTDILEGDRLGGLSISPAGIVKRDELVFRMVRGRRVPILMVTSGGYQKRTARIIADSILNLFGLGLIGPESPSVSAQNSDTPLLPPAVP

MV4-11 [2] = assay: cells; type: functional, cell-based; conditions: Homo sapiens, MV4-11, 72 h
Description: Antiproliferative activity against human MV4-11 cells assessed as inhibition of cell growth measured after 72 hrs by CellTiterGlo assay

Histone deacetylase 8 = target: T3, Histone deacetylase 8 (Homo sapiens, UniProt Q9BY41); assay: Inhibition of HDAC8 (unknown origin) by fluorescence based assay
T3 sequence (Q9BY41 whole entry): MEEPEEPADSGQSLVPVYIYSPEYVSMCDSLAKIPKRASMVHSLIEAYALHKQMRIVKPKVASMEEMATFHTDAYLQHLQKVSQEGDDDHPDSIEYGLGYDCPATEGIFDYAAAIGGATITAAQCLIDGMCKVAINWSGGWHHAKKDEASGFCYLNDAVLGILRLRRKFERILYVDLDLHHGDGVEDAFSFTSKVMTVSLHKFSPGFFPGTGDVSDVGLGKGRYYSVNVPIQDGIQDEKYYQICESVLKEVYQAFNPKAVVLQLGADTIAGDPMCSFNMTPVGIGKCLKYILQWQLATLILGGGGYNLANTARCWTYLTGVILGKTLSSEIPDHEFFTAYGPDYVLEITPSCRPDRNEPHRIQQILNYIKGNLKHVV

MOLM-13 = assay: cells; type: functional, cell-based; conditions: Homo sapiens, MOLM-13, 72 h
Description: Antiproliferative activity against human MOLM-13 cells assessed as inhibition of cell growth measured after 72 hrs by CellTiterGlo assay

Histone deacetylase 2 = Histone deacetylase 2 (Homo sapiens, UniProt Q92769); assay: Inhibition of HDAC2 (unknown origin) by fluorescence based assay
Histone deacetylase 2, sequence (Q92769 whole entry): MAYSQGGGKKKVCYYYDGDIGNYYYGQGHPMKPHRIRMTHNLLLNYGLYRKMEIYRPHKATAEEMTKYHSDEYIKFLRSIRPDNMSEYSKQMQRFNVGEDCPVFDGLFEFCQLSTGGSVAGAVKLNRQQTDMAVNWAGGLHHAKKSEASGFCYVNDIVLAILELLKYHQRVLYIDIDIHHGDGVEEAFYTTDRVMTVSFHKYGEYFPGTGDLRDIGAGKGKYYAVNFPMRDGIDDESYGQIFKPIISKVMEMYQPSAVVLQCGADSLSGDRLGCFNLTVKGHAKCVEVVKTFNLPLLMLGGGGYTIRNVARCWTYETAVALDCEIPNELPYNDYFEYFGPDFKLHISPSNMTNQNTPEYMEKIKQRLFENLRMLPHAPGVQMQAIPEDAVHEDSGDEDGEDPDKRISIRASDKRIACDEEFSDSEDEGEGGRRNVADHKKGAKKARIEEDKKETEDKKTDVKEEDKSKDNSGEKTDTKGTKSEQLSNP

[3] = Toxicity in mouse implanted in human MV4-11 cells assessed as animal death at 10 to 30 mg/kg, ip administered daily for 17 days; type: organism-based; conditions: in vivo, 408 h, dose 10-30 mg/kg, time 17 day
MV4-11 [4] = assay: Induction of apoptosis in human MV4-11 cells assessed as late apoptotic cells at 400 nM incubated for 72 hrs in presence of vorinostat by Annexin V/PI staining based flow cytometry analysis (reference value: 6.42 %); type: functional
MV4-11 [5] = assay: Antiproliferative activity against human MV4-11 cells assessed as growth inhibition at 0.05 uM measured after 72 hrs in presence of 1 uM of vorinostat by CellTiterGlo assay; type: functional; conditions: read-out: GI
MV4-11 [6] = assay: Induction of apoptosis in human MV4-11 cells assessed as necrotic cells at 200 nM incubated for 72 hrs by Annexin V/PI staining based flow cytometry analysis (reference value: 2.61%); type: functional
MV4-11 [7] = assay: Antiproliferative activity against human MV4-11 cells assessed as growth inhibition at 0.4 uM measured after 72 hrs in presence of 0.4 uM of vorinostat by CellTiterGlo assay; type: functional; conditions: read-out: GI
MV4-11 [8] = assay: Antiproliferative activity against human MV4-11 cells assessed as growth inhibition at 0.2 uM measured after 72 hrs in presence of 0.2 uM of vorinostat by CellTiterGlo assay; type: functional; conditions: read-out: GI
MV4-11 [9] = assay: Antiproliferative activity against human MV4-11 cells assessed as growth inhibition at 0.2 uM measured after 72 hrs in presence of 0.05 uM of vorinostat by CellTiterGlo assay; type: functional; conditions: read-out: GI
MV4-11 [10] = assay: Antiproliferative activity against human MV4-11 cells assessed as growth inhibition at 0.5 uM measured after 72 hrs in presence of 0.4 uM of vorinostat by CellTiterGlo assay; type: functional; conditions: read-out: GI
MV4-11 [11] = assay: Antiproliferative activity against human MV4-11 cells assessed as growth inhibition at 1 uM measured after 72 hrs in presence of 0.05 uM of vorinostat by CellTiterGlo assay; type: functional; conditions: read-out: GI
MV4-11 [12] = assay: Antiproliferative activity against human MV4-11 cells assessed as growth inhibition at 1 uM measured after 72 hrs in presence of 0.4 uM of vorinostat by CellTiterGlo assay; type: functional; conditions: read-out: GI

Compound	IC50 [1]	IC50 (Histone deacetylase 11)	IC50 (MV4-11 [2])	IC50 (Histone deacetylase 8)	IC50 (MOLM-13)	IC50 (Histone deacetylase 2)	Activity [3]	Activity (MV4-11 [4])	inhibition of growth at 0.05 µM (MV4-11 [5])	Activity (MV4-11 [6])	inhibition of growth at 0.4 µM (MV4-11 [7])	inhibition of growth at 0.2 µM (MV4-11 [8])	inhibition of growth at 0.2 µM (MV4-11 [9])	inhibition of growth at 0.5 µM (MV4-11 [10])	inhibition of growth at 1 µM (MV4-11 [11])	inhibition of growth at 1 µM (MV4-11 [12])
Cc1c(F)c(N)cc(C(=O)Nc2cc(-c3ccc(C(=O)NCc4ccc(/C=C/C(=O)NO)cc4)cc3)ccc2N2CCN(C)CC2)c1Cl	46 nM	> 10000 nM	65 nM	5300 nM	70 nM	696 nM	Non-toxic	–	–	–	–	–	–	–	–	–
Cc1c(F)c(N)cc(C(=O)Nc2cc(-c3ccc(C(=O)N4CCOCC4)cc3)ccc2N2CCN(C)CC2)c1Cl	–	–	–	–	–	–	–	16.81%	86.7%	1.62%	62.6%	48%	36.8%	65.2%	52.1%	68.7%
